Broadly, the IC50 is the concentration that gives 50% inhibition.

One experiment concerns A2780 cells. Nature of the experiment: Deoxy-glucose uptake assay in A2780 cells (14C 2-deoxy-D-glucose transport). The format is cell-based. The following applies: Homo sapiens, 20 min; inhibition of 14C 2-deoxy-D-glucose transport into A2780 cells; 20 min compound incubation; read-out: IC50. The method, then: 1. Deoxy-Glucose Uptake Assay in A2780 Cells:
For measurement of ^14C 2-deoxy-D-glucose transport into A2780 cells, cells were seeded in 96-well plates (Cytostar-T Plates Perkin Elmer, 70,000 cells/180 μl/well) in medium complete (RPMI1640+Glutamax (Life technologies #61870)) and grown for 48 hours. After 48 h, cells were washed once with 180 μL KRB (Krebs Ringer Bicarbonate) buffer, and stimulated in a dose dependent manner by adding 10 μL of test compound dilution 0-1.1 mM (11 times higher concentration than final) or 10 μL of 1.1 mM Cytochalasin B solution as negative control, to 90 μL KRB buffer and incubated for 20 minutes. After compound stimulation, the transport of ^14C 2-deoxy-D-glucose was started by adding of 50 μL 2-^14C[U] 2-deoxy-D-glucose solution (109.1 μM 2-deoxy-D-glucose cold and 33 μM 2-^14C[U] 2-deoxy-D-glucose 0.1 μCi/well) for 20 minutes. Transport was stopped by adding 50 μL/well 96 μM Cytochalasin B solution. Plates were measured in a 96-well Wallac Microbeta device. The cpm (counts per minute) values were used to determine the % inhibition values for the test compounds within each experiment. In a first step, the mean background value generated by Cytochalasin B (a potent glucose transporter inhibitor) treated cells, was subtracted from the mean values of the treated cells. All mean values were obtained from triplicates. For %-Inhibition results, the mean value of the untreated cells (just KRB) was set as 100%. All other mean values were calculated to this relation. IC50 were obtained by regression analysis of dose response curve with 7 or 14 concentrations, respectively, for each compound.
Regarding `COC(=O)COc1ccc(COc2cc(OC)c(C(=O)N[C@H]3[C@@H](OC)O[C@H](CO)[C@@H](O)[C@@H]3O)cc2Cl)cc1` (relative stereo) [Example 386], the IC50 is 5.3 µM. On the same count and under the same terms, with `COc1cc(OCc2ccc(/C=C/C(=O)NCCCCCC(=O)OC(C)(C)C)cc2)c(Cl)cc1C(=O)N[C@H]1[C@@H](OC)O[C@H](CO)[C@@H](O)[C@@H]1O` (relative stereo) [Example 392] the figure was 1.8 µM; with `COc1cc(OCc2nc3ccccc3n2CCCCCCCC(=O)O)c(Cl)cc1C(=O)N[C@H]1[C@@H](OC)O[C@H](CO)[C@@H](O)[C@@H]1O` (relative stereo) [Example 482], 8.1 µM; with `C=CCO[C@@H]1O[C@H](COC(=O)c2ccc(OCc3ccccc3)c(OC)c2)[C@@H](O)[C@H](O)[C@H]1O` [Example 11], 67.3 µM. On the same count and under the same terms, with `CO[C@@H]1O[C@H](COC(=O)c2cc(C)c(OCc3ccccc3)c(C)c2)[C@@H](O)[C@H](O)[C@H]1O` [Example 19] the figure was 62.4 µM; with `CO[C@@H]1O[C@H](COC(=O)c2cc(OCc3ccccc3)ccc2C)[C@@H](O)[C@H](O)[C@H]1O` [Example 34], 40.7 µM. As to `COc1cc(C(=O)OC[C@H]2OC(O)[C@H](O)[C@@H](O)[C@@H]2O)cc(Cl)c1OCCc1ccccc1` (stereo partly shown) [Example 56], the IC50 was found to be 43.2 µM. On the same count and under the same terms, with `Cc1ccc(OCc2ccccc2)cc1C(=O)OC[C@H]1OC(O)[C@H](O)[C@@H](O)[C@@H]1O` (stereo partly shown) [Example 61] the figure was 29.2 µM. The same measure, in the same setting: the same measure for `CO[C@H]1O[C@H](CO)[C@@H](O)[C@H](O)[C@H]1OC(=O)c1cc(Cl)cc(OCc2ccccc2)c1` [Example 74]: 52.3 µM; for `C#CCCC(=O)Nc1cccc(COc2c(Cl)cc(C(=O)O[C@@H]3C(O)[C@H](O)[C@@H](CO)O[C@@H]3OC)cc2OC)c1` (stereo partly shown) [Example 78]: 20.1 µM.

In the case of `COc1cccc(COc2c(Cl)cc(C(=O)O[C@H]3[C@@H](OC)O[C@H](CO)[C@@H](O)[C@@H]3O)cc2OC)c1` [Example 88], the IC50 came to 22.2 µM.

Regarding `Cc1ccc(OCc2ccccc2)cc1C(=O)OC[C@H]1OC(O)[C@H](O)[C@@H](O)[C@H]1O` (stereo partly shown) [Example 102], the IC50 worked out at 13.7 µM. On to `CO[C@H]1O[C@H](CO)[C@@H](O)[C@H](O)[C@H]1OC(=O)c1cc(Cl)c(OCc2nccn2Cc2ccccc2)c(Cl)c1` [Example 117], for which the IC50 is 10 µM. On the same count and under the same terms, the same measure for `COc1ncc(COc2c(Cl)c(C)c(C(=O)O[C@H]3[C@@H](OC)O[C@H](CO)[C@@H](O)[C@@H]3O)c(OC)c2Cl)cc1Cl` [Example 126]: 5.6 µM.

Regarding `COc1cc(C(=O)O[C@H]2[C@@H](O)[C@@H](CO)O[C@H](OC)[C@@H]2O)cc(Cl)c1OCc1nc2ccccc2n1C(C)C` [Example 127], the IC50 was 32.7 µM. With `COc1cc(OCc2ccccc2)cc(C(=O)OC[C@H]2O[C@@H](OC)[C@H](O)[C@@H](O)[C@@H]2O)c1` [Example 136], the half-maximal inhibitory concentration (IC50) worked out at 76.4 µM.

Regarding `CO[C@@H]1O[C@H](COC(=O)c2cc(OCc3ccccc3)c3cc[nH]c3c2)[C@@H](O)[C@H](O)[C@H]1O` [Example 145], the IC50 came out at 45.6 µM. As to `COc1cc(C(=O)OC[C@H]2O[C@@H](OC)[C@H](O)[C@@H](O)[C@@H]2O)cc(Cl)c1OCc1nc2ccccc2n1C(C)C` [Example 151], the IC50 came to 18.5 µM. Same read-out and setting: with `COc1cc(C(=O)N[C@H]2[C@@H](OC)O[C@H](CO)[C@@H](O)[C@@H]2O)cc(Cl)c1OCc1ccccc1` [Example 179] the figure was 38 µM; with `COc1c(Cl)c(OCc2cccc(CNC(=O)OC(C)(C)C)c2)c(Cl)c(C)c1C(=O)N[C@H]1[C@@H](OC)O[C@H](CO)[C@@H](O)[C@@H]1O` [Example 181], 17.2 µM. On the same count and under the same terms, with `C#CCCCn1c(COc2c(Cl)cc(C(=O)O[C@H]3[C@@H](OC)O[C@H](CO)[C@@H](O)[C@@H]3O)cc2OC)nc2ccccc21` [Example 186] the figure was 6 µM; with `COc1ccc(COc2c(Cl)cc(C(=O)O[C@H]3[C@@H](OC)O[C@H](CO)[C@@H](O)[C@@H]3O)cc2OC)cc1` [Example 190], 10.2 µM. On the same count and under the same terms, with `C#CCCC(=O)Nc1cccc(COc2c(Cl)cc(C(=O)O[C@@H]3[C@@H](O)[C@@H](OC)O[C@H](CO)[C@H]3O)c(C)c2Cl)c1` [Example 205] the figure was 27.5 µM; with `CO[C@H]1O[C@H](CO)[C@@H](O)[C@H](O)[C@H]1NC(=O)c1cc(Cl)c(OCc2cccc(C(=O)OC(C)(C)C)c2)c(Cl)c1C` [Example 209], 2.5 µM; with `COc1ncc(COc2c(Cl)cc(C(=O)N[C@H]3[C@@H](OC)O[C@H](CO)[C@@H](O)[C@@H]3O)c(C)c2Cl)cc1Cl` [Example 210], 0.6 µM. Take `CCn1c(COc2c(Cl)cc(C(=O)O[C@H]3[C@@H](OC)O[C@H](CO)[C@@H](O)[C@@H]3O)cc2OC)nc2ccc(Br)cc21` [Example 213]: the IC50 was determined as 1.5 µM. With `COc1ncc(COc2c(Cl)cc(C(=O)O[C@H]3[C@@H](OC)O[C@H](CO)[C@@H](O)[C@@H]3O)c(C)c2Cl)cc1Cl` [Example 215], the IC50 was determined as 1.1 µM.

In the case of `COc1cc(C(=O)O[C@H]2[C@@H](OC)O[C@H](CO)[C@@H](O)[C@@H]2O)cc(Cl)c1OCc1cnc(OC)c(Cl)c1` [Example 216], the IC50 came to 2.2 µM. Still for that read-out and setting: the same measure for `COc1cc(OCc2ccc(/C=C/C(=O)NCCCC(=O)OC(C)(C)C)cc2)c(Cl)cc1C(=O)N[C@H]1[C@@H](OC)O[C@H](CO)[C@@H](O)[C@@H]1O` [Example 236]: 0.4 µM; for `COc1cc(C(=O)N[C@H]2[C@@H](OC)O[C@H](CO)[C@@H](O)[C@@H]2O)cc(Cl)c1OCc1nc2ccccc2n1C(C)C` [Example 238]: 21.7 µM. As for `CO[C@H]1O[C@H](CO)[C@@H](O)[C@H](O)[C@H]1NC(=O)c1cc(Cl)c(OCc2ccc3c(cnn3C)c2)c(Cl)c1C` [Example 240], the IC50 came out at 6 µM. On the same count and under the same terms, with `COc1cccc(CCOc2c(Cl)cc(C(=O)O[C@H]3[C@@H](OC)O[C@H](CO)[C@@H](O)[C@@H]3O)c(C)c2Cl)c1` [Example 241] the figure was 24.5 µM; with `CO[C@H]1O[C@H](CO)[C@@H](O)[C@H](O)[C@H]1OC(=O)c1cc(Cl)c(OCCc2cccc(Cl)c2)c(Cl)c1C` [Example 242], 19.8 µM; with `CO[C@H]1O[C@H](CO)[C@@H](O)[C@H](O)[C@H]1OC(=O)c1cc(Cl)c(OCCc2ccc(C)cc2)c(Cl)c1C` [Example 243], 27.4 µM.

`CO[C@H]1O[C@H](CO)[C@@H](O)[C@H](O)[C@H]1OC(=O)c1cc(Cl)c(OCCc2ccc(Cl)cc2)c(Cl)c1C` [Example 244]: the IC50 amounted to 22.3 µM. Consider `COC(=O)c1ccc(COc2c(Cl)cc(C(=O)N[C@H]3[C@@H](OC)O[C@H](CO)[C@@H](O)[C@@H]3O)c(C)c2Cl)cn1` [Example 245], for which the IC50 was found to be 63.6 µM.

For `COC(=O)c1cnc(COc2c(Cl)cc(C(=O)N[C@H]3[C@@H](OC)O[C@H](CO)[C@@H](O)[C@@H]3O)c(C)c2Cl)cn1` [Example 246], the IC50 was 51.7 µM. The same measure, in the same setting: with `COC(=O)c1ccc(COc2c(Cl)cc(C(=O)O[C@H]3[C@@H](OC)O[C@H](CO)[C@@H](O)[C@@H]3O)c(C)c2Cl)cn1` [Example 252] the figure was 6.5 µM; with `COC(=O)c1cnc(COc2c(Cl)cc(C(=O)O[C@H]3[C@@H](OC)O[C@H](CO)[C@@H](O)[C@@H]3O)c(C)c2Cl)cn1` [Example 253], 7.1 µM; with `CO[C@H]1O[C@H](CO)[C@@H](O)[C@H](O)[C@H]1OC(=O)c1cc(Cl)c(OCc2cn3c(C)cccc3n2)c(Cl)c1C` [Example 255], 0.3 µM. Still for that read-out and setting: with `CO[C@H]1O[C@H](CO)[C@@H](O)[C@H](O)[C@H]1NC(=O)c1cc(Cl)c(OCc2cn3c(C)cccc3n2)c(Cl)c1C` [Example 256] the figure was 1.1 µM. With `COC(=O)c1cc(COc2c(Cl)cc(C(=O)N[C@H]3[C@@H](OC)O[C@H](CO)[C@@H](O)[C@@H]3O)c(C)c2Cl)ccc1Cl` [Example 257], the IC50 came out at 7.2 µM. Take `CO[C@H]1O[C@H](CO)[C@@H](O)[C@H](O)[C@H]1OC(=O)c1cc(Cl)c(OCc2cccc(CO)n2)c(Cl)c1C` [Example 259]: the IC50 was found to be 12.2 µM.

On to `CO[C@H]1O[C@H](CO)[C@@H](O)[C@H](O)[C@H]1NC(=O)c1cc(Cl)c(OCc2ccc3c(c2)nnn3C)c(Cl)c1C` [Example 260], for which the IC50 amounted to 75.2 µM. On the same count and under the same terms, the same measure for `CO[C@H]1O[C@H](CO)[C@@H](O)[C@H](O)[C@H]1OC(=O)c1cc(Cl)c(OCc2ccc3c(c2)nnn3C)c(Cl)c1C` [Example 261]: 0.5 µM. Same read-out and setting: the same measure for `COC(=O)c1cc(COc2c(Cl)cc(C(=O)O[C@H]3[C@@H](OC)O[C@H](CO)[C@@H](O)[C@@H]3O)c(C)c2Cl)ccc1Cl` [Example 262]: 1 µM; for `CO[C@H]1O[C@H](CO)[C@@H](O)[C@H](O)[C@H]1OC(=O)c1cc(Cl)c(OCc2cccc(C(=O)OC(C)(C)C)c2)c(Cl)c1C` [Example 269]: 13.4 µM.

Still in this experiment, the particulars now being: Homo sapiens, A2780, 20 min.
For `COc1cc(C(=O)OC[C@H]2O[C@@H](OCC[Si](C)(C)C)[C@H](O)[C@@H](O)[C@@H]2O)cc(Cl)c1OCCc1ccccc1` [Example 28], the IC50 was 82.5 µM. Turning to `COc1cc(C(=O)OC[C@H]2O[C@@H](OCC[Si](C)(C)C)[C@H](O)[C@@H](O)[C@@H]2O)cc(Cl)c1OC(=O)c1ccccc1` [Example 36], half-maximal inhibition (IC50) was put at 47.4 µM.

Source of the values: patent US20210170033A1, “NOVEL CONJUGATES OF A PHARMACEUTICAL AGENT AND A MOIETY CAPABLE OF BINDING TO A GLUCOSE SENSING PROTEIN” (SANOFI, priority 2017, published 2021).
